Series [1] in a line: Prodrug stability assay in bio-relevant media (FaSSIF with Pancreatin, GI tract stability). It is filed as in vitro ADME. The settings on record: HPLC peak area of prodrug at 5 h / 0 h, 0.5 mg/mL Pancreatin in FaSSIF, 37° C. On the procedure: Prodrug Stability Assay in Bio-Relevant Media
The following assay was employed to evaluate the stability of the prodrugs in simulated gastrointestinal tract conditions. Preparation of fasted state simulated intestinal fluid (FaSSIF) using Phares SIF Powder was carried out according to protocols from Phare Drug Delivery AG (Baselland, Switzerland). For sample preparation, 10 μL stock solutions (10 mM) of prodrug substance in DMSO was added to 990 μL of 0.5 mg/mL Pancreatin solution (Fisher CAS#8049-47-6) in FaSSIF. Two samples were prepared for each compound. If the sample was a clear solution, it was directly analyzed by HPLC. If the sample was not clear, the sample was […] at 37° C. and observed 5 h later. If the sample was clear, HPLC analysis was directly performed. If the sample was still not clear, the sample was diluted with 100% ACN and assayed by HPLC. All the samples were vortexed for 3 min and observed before injection. For the diluted samples, the area is multiplied by a dilution factor when the data is analyzed. The analysis was carried out with an Agilent 1100 series HPLC with autosampler. The column was a Poroshell 120 EC-C18, 4.6×50 mm, […]. The flow rate was 1.8 mL/min, and the injection volume was 5 or 10 μL. UV detection was in the range 210-400 nm. The mobile phase consisted of solvent A (water plus 10 mM tetrabutylammonium bromide) and solvent B (acetonitrile) with a gradient of: 90% solvent A at 0 min, changing to 95% solvent B over 6 min, maintaining for 1.5 min, then reverting to 90% solvent A over 1.6 min. The HPLC peak area of the prodrug at 5 h was divided by the HPLC peak area of the prodrug at 0 h, to generate the % claimed parent ratio, which is summarized in Table 2 for gastrointestinal (GI) Tract stability.

Series [2] deals with HIV-1 (H9/IIIB strain). In words: Viking assay: antiviral potency in a multiple round HIV-1 infection assay in MT4-GFP cells. In kind it is cell-based. As to conditions: MT4-GFP cells infected with HIV-1 H9/IIIB, inhibition of reproductive ratio R0. As for the experimental part: Assessing Antiviral Potency in a Multiple Round HIV-1 Infection Assay (Viking Assay)
The antiviral activity of the tenofovir prodrugs of the Examples herein was assessed in an assay that measures the rate of replication of HIV in cell culture, termed the Viking assay (VIral KINetics in Green cells) and performed as follows. HIV-1 replication was monitored using MT4-gag-GFP clone D3 (hereafter designated MT4-GFP), which are MT-4 cells modified to harbor a GFP reporter gene, the expression of which is dependent on the HIV-1 expressed proteins tat and rev. Productive infection of an MT4-GFP cell with HIV-1 results in GFP expression approximately 24 h post-infection. MT4-GFP cells were maintained at 37° C./5% CO2/90% relative humidity in RPMI 1640 supplemented with 10% fetal bovine serum, 100 U/ml penicillin/streptomycin, and 400 μg/ml G418 to maintain the reporter gene. For infections, MT4-GFP cells were placed in the same medium lacking G418 and infected overnight with HIV-1 (H9/IIIB strain) virus at an approximate multiplicity of infection of 0.01 in the same incubation conditions. Cells were then washed and re-suspended in either RPMI 1640 supplemented with 10% or 50% normal human serum (NHS) at 1.6×10^5 cells/mL (10% NHS or 50% NHS, respectively). Compound plates were prepared by dispensing compounds dissolved in DMSO into wells of 384 well poly-D-lysine-coated plates (0.2 μl/well) using an ECHO acoustic dispenser. Each compound was tested in a 10-point serial 3-fold dilution (typical final concentrations: 8.4 μM-0.42 nM). Controls included no inhibitor (DMSO only) and a combination of three antiviral agents (efavirenz, indinavir, an in-house integrase strand transfer inhibitor at final concentrations of 4 μM each). Cells were added (50 μL/well) to compound plates and the infected cells were maintained at 37° C./5% CO2/90% relative humidity.
Infected cells were quantified at two time points, ˜48 h and ˜72 h post-infection, by counting the number of green cells in each well using an Acumen eX3 scanner. The increase in the number of green cells over ˜24 h period gives the reproductive ratio, R0, which is typically 5-15 and has been shown experimentally to be in logarithmic phase (data not shown). Inhibition of R0 is calculated for each well, and IC50s determined by non-linear 4-parameter curve fitting.

The mark [3] stands for this setting: Human immunodeficiency virus 1, IIIB, 10% normal human serum, read-out: Viking, IC50 (10% NHS).
[4] abbreviates: Human immunodeficiency virus 1, IIIB, 50% normal human serum, read-out: Viking, IC50 (50% NHS).

pIC50: −log10 of the molar value. Like-named read-outs stand apart in the source and are kept apart here.

Broadly, the pIC50 is the IC50 on a negative log10 scale, so that one unit is a factor of ten.

On to `CC(C)OC(=O)C(C)(C)NP(=O)(CO[C@H](C)Cn1cnc2c(N)ncnc21)ON=C1CCCC1` (mixture of isomers) [Example 27, isopropyl 2-(((R)-((((R)-1-(6-amino-9H-purin-9-yl)propan-2-yl)oxy)methyl)((cyclopentylideneamino)oxy)phosphoryl)amino)-2-methylpropanoate; and isopropyl 2-(((S)-((((R)-1-(6-amino-9H-purin-9-yl)propan-2-yl)oxy)methyl)((cyclopentylideneamino)oxy)phosphoryl)amino)-2-methylpropanoate], for which the “GI Tract stability” value in series [1] is 99.3%.

As to `CC(C)CC(CC(C)C)=NOP(=O)(CO[C@H](C)Cn1cnc2c(N)ncnc21)NC(C)(C)C(=O)OC1CCC1` (mixture of isomers) [Example 32, cyclobutyl 2-(((R)-((((R)-1-(6-amino-9H-purin-9-yl)propan-2-yl)oxy)methyl)(((2,6-dimethylheptan-4-ylidene)amino)oxy)phosphoryl)amino)-2-methylpropanoate; and cyclobutyl 2-(((S)-((((R)-1-(6-amino-9H-purin-9-yl)propan-2-yl)oxy)methyl)(((2,6-dimethylheptan-4-ylidene)amino)oxy)phosphoryl)amino)-2-methylpropanoate], the “GI Tract stability” value in series [1] is reported as 5.6%.

Consider `CC(C)=NOP(=O)(CO[C@H](C)Cn1cnc2c(N)ncnc21)N[C@@H](C)C(=O)OCc1ccccc1` (stereo partly drawn) [Example 5, benzyl (((R)-(((R)-1-(6-amino-9H-purin-9-yl)propan-2-yl)oxy)methyl)((propan-2-ylideneamino)oxy)phosphoryl)-L-alaninate; and benzyl (((S)-(((R)-1-(6-amino-9H-purin-9-yl)propan-2-yl)oxy)methyl)((propan-2-ylideneamino)oxy)phosphoryl)-L-alaninate], for which the negative logarithm of the IC50 (pIC50) is 7.67 in series [2] (setting [3]); 6.94 in series [2] (setting [4]); 7.82 in series [2] (10% normal human serum, read-out: Viking, IC50 (10% NHS)); 7.17 in series [2] (50% normal human serum, read-out: Viking, IC50 (50% NHS)).

`CC(C)OC(=O)[C@H](C)NP(=O)(CO[C@H](C)Cn1cnc2c(N)ncnc21)ON=C(C1CCCC1)C1CCCC1` (stereo partly drawn) [Example 6, isopropyl (((((R)-1-(6-amino-9H-purin-9-yl)propan-2-yl)oxy)methyl)(((dicyclopentylmethyl-ene)amino)oxy)phosphoryl)-L-alaninate]: the negative logarithm of the IC50 (pIC50) in series [2] (setting [3]) was 7.61; in series [2] (setting [4]), 7.29.

For the molecule `CCC(CC)=NOP(=O)(CO[C@H](C)Cn1cnc2c(N)ncnc21)N[C@@H](C)C(=O)OC(C)C` (stereo partly drawn) [Example 7, isopropyl (((((R)-1-(6-amino-9H-purin-9-yl)propan-2-yl)oxy)methyl)((pentan-3-ylideneamino)oxy)phosphoryl)-L-alaninate], the results for the pIC50 in series [2] (setting [3]) and in series [2] (setting [4]) were 7.55 and 7.07, respectively.

For the molecule `CC(C)OC(=O)[C@H](C)NP(=O)(CO[C@H](C)Cn1cnc2c(N)ncnc21)ON=C1CCCCC1` (stereo partly drawn) [Example 8, isopropyl (((((R)-1-(6-amino-9H-purin-9-yl)propan-2-yl)oxy)methyl)((cyclohexylideneamino)oxy)phosphoryl)-L-alaninate], the pIC50 in series [2] (setting [3]) was 7.17; in series [2] (setting [4]), 7.04.

`CC(C)OC(=O)[C@H](C)NP(=O)(CO[C@H](C)Cn1cnc2c(N)ncnc21)ON=C1CCOCC1` (stereo partly drawn) [Example 9, isopropyl (((((R)-1-(6-amino-9H-purin-9-yl)propan-2-yl)oxy)methyl)(((tetrahydro-4H-pyran-4-ylidene)amino)oxy)phosphoryl)-L-alaninate]: the pIC50 in series [2] (setting [3]) is 6.78; in series [2] (setting [4]), 6.44.

For `CC(C)OC(=O)[C@H](C)NP(=O)(CO[C@H](C)Cn1cnc2c(N)ncnc21)ON=C1CCN(Cc2ccccc2)CC1` (stereo partly drawn) [Example 11, isopropyl (((((R)-1-(6-amino-9H-purin-9-yl)propan-2-yl)oxy)methyl)(((1-benzylpiperidin-4-ylidene)amino)oxy)phosphoryl)-L-alaninate], the pIC50 is 7.83 in series [2] (setting [3]) and 7.29 in series [2] (setting [4]).

Turning to `CC(C)CC(CC(C)C)=NOP(=O)(CO[C@H](C)Cn1cnc2c(N)ncnc21)N[C@@H](C)C(=O)OC(C)C` (stereo partly drawn) [Example 12, isopropyl (((R)-(((R)-1-(6-amino-9H-purin-9-yl)propan-2-yl)oxy)methyl)(((2,6-dimethylheptan-4-ylidene)amino)oxy)phosphoryl)-L-alaninate; and isopropyl (((S)-(((R)-1-(6-amino-9H-purin-9-yl)propan-2-yl)oxy)methyl)(((2,6-dimethylheptan-4-ylidene)amino)oxy)phosphoryl)-L-alaninate], the “GI Tract stability” value in series [1] is recorded as 17.6%.

Take `CC(C)OC(=O)[C@H](C)NP(=O)(CO[C@H](C)Cn1cnc2c(N)ncnc21)ON=C1CCCC1` (stereo partly drawn) [Example 13, isopropyl (((R)-(((R)-1-(6-amino-9H-purin-9-yl)propan-2-yl)oxy)methyl)((cyclopentylidene-amino)oxy)phosphoryl)-L-alaninate; and isopropyl (((S)-(((R)-1-(6-amino-9H-purin-9-yl)propan-2-yl)oxy)methyl)((cyclopentylidene-amino)oxy)phosphoryl)-L-alaninate]: the “GI Tract stability” value in series [1] was determined as 95.7%.

For `CC(C)OC(=O)[C@H](C)NP(=O)(CO[C@H](C)Cn1cnc2c(N)ncnc21)ON=C(c1ccccc1)c1ccccc1` (stereo partly drawn) [Example 14, isopropyl (((((R)-1-(6-amino-9H-purin-9-yl)propan-2-yl)oxy)methyl)(((diphenylmethylene)amino)oxy)phosphoryl)-L-alaninate], the pIC50 in series [2] (setting [3]) was 7.73; in series [2] (setting [4]) it was 6.77.

Consider `C/C(=N\OP(=O)(CO[C@H](C)Cn1cnc2c(N)ncnc21)N[C@@H](C)C(=O)OC(C)C)C1CCCCC1` (stereo partly drawn) [Example 15, isopropyl (((R)-(((R)-1-(6-amino-9H-purin-9-yl)propan-2-yl)oxy)methyl)((((E)-1-cyclohexylethylidene)amino)oxy)phosphoryl)-L-alaninate; and isopropyl (((S)-(((R)-1-(6-amino-9H-purin-9-yl)propan-2-yl)oxy)methyl)((((E)-1-cyclohexylethylidene)amino)oxy)phosphoryl)-L-alaninate], for which the “GI Tract stability” value in series [1] was 33.4%.

As for `C/C(=N\OP(=O)(CO[C@H](C)Cn1cnc2c(N)ncnc21)N[C@@H](C)C(=O)OC(C)C)c1ccncc1` (stereo partly drawn) [Example 16, isopropyl (((R)-(((R)-1-(6-amino-9H-purin-9-yl)propan-2-yl)oxy)methyl)((((E)-1-(pyridin-4-yl)ethylidene)amino)oxy)phosphoryl)-L-alaninate and isopropyl; and (((S)-(((R)-1-(6-amino-9H-purin-9-yl)propan-2-yl)oxy)methyl)((((E)-1-(pyridin-4-yl)ethylidene)amino)oxy)phosphoryl)-L-alaninate], the pIC50 in series [2] (setting [3]) is 6.11; in series [2] (setting [4]) it was 5.94.

The values are drawn from patent publication US10450335B2, “Antiviral oxime phosphoramide compounds” (Merck Sharp & Dohme Corp., priority 2015, dated 2019).
